From ChEMBL document CHEMBL1147492, “Small molecule biaryl FSH receptor agonists. Part 1: Lead discovery via encoded combinatorial synthesis” (Bioorg Med Chem Lett, 2004)

Biological target: T1, Follicle-stimulating hormone receptor (Homo sapiens, UniProt P23945)
T1 sequence (P23945 whole entry): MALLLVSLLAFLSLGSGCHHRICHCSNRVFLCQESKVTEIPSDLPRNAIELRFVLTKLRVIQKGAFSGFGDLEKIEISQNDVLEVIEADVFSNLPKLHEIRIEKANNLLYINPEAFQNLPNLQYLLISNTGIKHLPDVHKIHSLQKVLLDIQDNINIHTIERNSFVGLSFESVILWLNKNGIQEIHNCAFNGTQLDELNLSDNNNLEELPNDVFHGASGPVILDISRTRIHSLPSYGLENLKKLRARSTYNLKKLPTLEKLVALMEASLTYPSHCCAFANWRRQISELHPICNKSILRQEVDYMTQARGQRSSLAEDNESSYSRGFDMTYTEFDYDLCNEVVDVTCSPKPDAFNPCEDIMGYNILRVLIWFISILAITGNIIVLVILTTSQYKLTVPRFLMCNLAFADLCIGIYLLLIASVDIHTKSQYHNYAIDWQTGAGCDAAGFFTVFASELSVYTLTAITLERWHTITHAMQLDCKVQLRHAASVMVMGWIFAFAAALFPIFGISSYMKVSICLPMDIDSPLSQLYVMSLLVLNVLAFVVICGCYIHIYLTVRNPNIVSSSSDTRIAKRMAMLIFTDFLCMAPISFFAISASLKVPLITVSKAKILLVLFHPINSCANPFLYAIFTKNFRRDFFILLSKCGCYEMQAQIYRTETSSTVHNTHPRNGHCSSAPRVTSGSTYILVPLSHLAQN
Test: Agonistic activity against Follicle stimulating hormone receptor expressed in chinese hamster ovary cells(CHO)
Assay type: functional, cell-based

| SMILES | EC50 [nM] |
| --- | --- |
| CCCCCCNC(=O)CN1CC(=O)N(C)[C@@H](Cc2ccc(-c3cc(OC)c(OC)c(OC)c3)cc2)C1=O | 3000 |
| CCCCCCNC(=O)CN1C(=O)C(Cc2ccc(-c3ccc(CN(CCCC)C(=O)NC)cc3)cc2)N(C)C1=O (stereo not given) | 2500 |
| CCCCN(Cc1cccc(-c2ccc(C(=O)NC3CCCCN(CC(=O)NCCc4ccc(Cl)cc4)C3=O)cc2)c1)C(=O)NC (stereo not given) | 260 |

Second part, the compound after the results:

| EC50 [nM] | SMILES |
| --- | --- |
| 3900 | CCCCOC(=O)N(CC(=O)NCC1CC1)Cc1ccc(-c2ccccc2CN(CCCC)C(C)=O)cc1 |
| 1700 | CCCCCNC(=O)CN1CC(=O)N(C)[C@@H](Cc2ccc(-c3cccc(CN(CCCC)C(=O)NC)c3)cc2)C1=O |
